Here are results for 13 compounds from patent US11634447B2 (priority 2012, dated 2023).

The test relates to bacterial strain LF82 binding to the glycoprotein BSA-(Mannose)3. Put plainly: Bacterial Binding Assay (BBA). Format: cell-based, Escherichia coli. The settings on record: read-out: Bacterial Binding Assay IC50, LF82/Luciferase strain binding to BSA-(Man)3 coated plates, luminescence. An excerpt:
The purpose of the Bacterial Binding Assay (BBA) is to determine the inhibition activity of
selective FimH antagonists on the bacterial strain LF82 binding to the glycoprotein BSA-(Mannose)3.
Below is a list of the Materials used to run the BBA are described below. • 1. LB broth: Supplier: Gibco, #10855 • 2. D-PBS: Supplier: Wisent, #311-425-CL • 3. LB agar plates • 4. 96-well black plate (high binding): Supplier: Costar, #3925 • 5. TopSeal™-A adhesive sealing films; Supplier PerkinElmer, #6005185 • 6. Carbonate-bicarbonate buffer pH 9.6 tablets, Supplier: Medicago, #09-8922-24 • 7. Water, Supplier: Gibco, #15230-162 • 8. Bovine serum albumin (BSA): Supplier: Sigma, #A-7888 • 9. (Man)3-BSA (α1-3, α1-6 Mannotriose-BSA, 1 mg), V-Labs, #NGP1336, lot #HGDX37-169-1 • 10. Tween 20: Supplier: Sigma, #P9416 • 11. Bright-Glo Luciferase Assay System: Supplier: Promega, #E2610 • 12. LF82/Luciferase strain: Invasive ability of an Escherichia coli strain isolated from the ileal mucosa of a patient with Crohn ? disease. Boudeau J, Glasser A L, Masseret E, Joly B, Darfeuille-Michaud A, Infect Immun. 1999, 67(9), 4499-509
Solutions and buffers used to run the BBA are described below. • 1. 0.04M carbonate-bicarbonate buffer (coating buffer) • 2. 40 μg/mL BSA-(Man)3: Dissolve 1 mg of (Man)3-BSA in 25 mL of water. • 3. 4000 μg/mL BSA • 4. 40 μg/mL BSA • 5. 1 μg/mL BSA-(Man)3: 150 μL of 40 μg/mL BSA-(Man)3+5.85 mL of 40 μg/mL BSA • 6. 0.5 μg/mL BSA-(Man)3 in 0.02M carbonate-bicarbonate buffer. • 7. 20 μg/mL BSA in 0.02M carbonate-bicarbonate buffer • 8. Blocking buffer (2% BSA/DPBS): 1 g of BSA in 50 mL D-PBS • 9. 2× binding buffer (0.2% BSA/D-PBS): 5 mL of blocking buffer+45 mL D-PBS. • 10. Washing buffer (D-PBS/0.01% Tween 20): 10 μL of Tween 20 in 100 mL D-PBS. • 11. 1× Bright-Glo Luciferase substrate: Dilute 1:1 the Bright-Glo Luciferase Assay System with D-PBS The experimental protocol to run the BBA is described below.
Overnight culture of LF82/Luciferase strain: Into two Falcon 50 mL tubes, add 20 mL of LB+20 μL of 50 mg/mL Kanamycin and inoculate with a loop from glycerol stock of the LF82/Luciferase strain. Incubate overnight at 37° C. with no shaking.
Glycoprotein coating of 96-well plates: Add 100 μL/well of 0.5-2 μg/mL BSA-(Man)3. 20 μg/mL BSA is used as the control background. Seal plate using an adhesive sealing film and incubate overnight at room temperature. Wash the 96-well plate three times with 150 μL/well of D-PBS, add 170 μL/well of blocking solution and incubate 45 min (minimum) at room temperature.
Preparation of bacterial suspension: Mix the two cultures tubes (40 mL) and perform a 1:10 dilution in LB (900 μl LB+100 μl culture. Measure optical density (OD) of the bacterial cultures. OD1 ˜5×10^8 cells/mL. Centrifuge LF82 culture for 20 min at 3500 rpm at room temperature. Re-suspend bacterial pellet in D-PBS and centrifuge again for 20 min at 3500 rpm. Re-suspend bacterial pellet in D-PBS to obtain a bacterial concentration of 2×10^9 bacteria/mL. Dilute 1/10 in D-PBS to obtain a final bacterial concentration of 2×10^8 bacteria/mL (=107 bacteria/50 μL). Perform 1/10 serial dilutions in LB of each bacterial suspension, plate 10 μL of dilutions on LB agar plates (final dilutions of 10^−7) and incubate overnight at 37° C. and count CFUs to determine the actual bacteria density in the assay.
Bacterial binding assay: Add 147 μL 2× binding buffer to compound plate (containing 3 μL of compound). After blocking step is performed (at least 45 min), wash plates three times with 200 μL/well of D-PBS. With a 100 μL multichannel manual pipettor, add 50 µL/well of compound diluted in 2× binding buffer. With a 100 μL multichannel manual pipettor, add 50 μL/well of bacterial suspension. Agitate at slow speed for 1 min and incubate 40-75 min at room temperature. Wash 5 times with 150 μL/well of washing buffer and then once with D-PBS. Add 100 μL/well of 1× Bright-Glo Luciferase substrate. […]
Turning to `Cc1cc(C2CC2c2ccc([C@H]3O[C@H](CO)[C@@H](O)[C@H](O)[C@@H]3O)c(C)c2)ccc1[C@H]1O[C@H](CO)[C@@H](O)[C@H](O)[C@@H]1O` (stereo partly drawn) [Compound 160, (2R,3S,4R,5S,6R)-2-(hydroxymethyl)-6-[2-methyl-4-[2-[3-methyl-4-[(2R,3S,4R,5S,6R)-3,4,5-trihydroxy-6-(hydroxymethyl)tetrahydropyran-2-yl]phenyl]cyclopropyl]phenyl]tetrahydropyran-3,4,5-triol], the IC50 amounted to 17 nM. With `CC(C)C(=O)N1CCC2(CC1)c1cc(C#C[C@H]3O[C@H](CO)[C@@H](O)[C@H](O)[C@@H]3O)ccc1-c1ccc(C#C[C@H]3O[C@H](CO)[C@@H](O)[C@H](O)[C@@H]3O)cc12` [Compound 224, 1-[2,7-bis[2-[(2R,3S,4R,5S,6R)-3,4,5-trihydroxy-6-(hydroxymethyl)tetrahydropyran-2-yl]ethynyl]spiro[fluorene-9,4piperidine]-1yl]-2-methyl-propan-l-one] the figure was 0.08 nM. `OC[C@H]1O[C@H](C#Cc2ccc3c(c2)C2(C[C@@H](O)[C@@H](O)C2)c2cc(C#C[C@H]4O[C@H](CO)[C@@H](O)[C@H](O)[C@@H]4O)ccc2-3)[C@@H](O)[C@@H](O)[C@@H]1O` (stereo partly drawn) [Compound 194, (2R,3 S,4R,5S,6R)-2-[2-[(3R,4S)-3,4-Dihydroxy-7[2-[(2R,3 S,4R,5S,6R)-3,4,5-trihydroxy-6-(hydroxymethyl)tetrahydropyran-2-yl]ethynyl]spiro[cyclopentane-1,9fluorene]-2yl]ethynyl]-6-(hydroxymethyl)tetrahydropyran-3,4,5-triol]: the IC50 came to 0.27 nM. For `OCC(O)CC1(O)c2cc(C#C[C@H]3O[C@H](CO)[C@@H](O)[C@H](O)[C@@H]3O)ccc2-c2ccc(C#C[C@H]3O[C@H](CO)[C@@H](O)[C@H](O)[C@@H]3O)cc21` (stereo partly drawn) [Compound 196, (2R,3S,4R,5S,6R)-2-[2-[9-(2,3-dihydroxypropyl)-9-hydroxy-7-[2-[(2R,3S,4R,5S,6R)-3,4,5-trihydroxy-6-(hydroxymethyl)tetrahydropyran-2-yl]ethynyl]fluoren-2-yl]ethynyl]-6-(hydroxymethyl)tetrahydropyran-3,4,5-triol] the value was 28 nM; for `CN(C)CC(=O)c1c(C#C[C@H]2O[C@H](CO)[C@@H](O)[C@H](O)[C@@H]2O)ccc2c1C1(CCNCC1)c1cc(C#C[C@H]3O[C@H](CO)[C@@H](O)[C@H](O)[C@@H]3O)ccc1-2` [Compound 222, 1-[2,7-bis[2-[(2R,3S,4R,5S,6R)-3,4,5-trihydroxy-6-(hydroxymethyl)tetrahydropyran-2-yl]ethynyl]spiro[fluorene-9,4piperidine]-1yl]-2-(dimethylamino)ethanone], 0.08 nM; for `OCc1cc(C#C[C@H]2O[C@H](CO)[C@@H](O)[C@H](O)[C@@H]2O)ccc1C#C[C@H]1O[C@H](CO)[C@@H](O)[C@H](O)[C@@H]1O` [Compound 95, (2R,3S,4R,5S,6R)-2-(hydroxymethyl)-6-[2-[3-(hydroxymethyl)-4-[2-[(2R,3S,4R,5S,6R)-3,4,5-trihydroxy-6-(hydroxymethyl)tetrahydropyran-2-yl]ethynyl]phenyl]ethynyl]tetrahydropyran-3,4,5-triol], 38 nM. For the compound `Cc1cc(C#C[C@H]2O[C@H](CO)[C@@H](O)[C@H](O)[C@@H]2O)ccc1C#C[C@H]1O[C@H](CO)[C@@H](O)[C@H](O)[C@@H]1O` [Compound 104, (2R,3S,4R,5S,6R)-2-(hydroxymethyl)-6-[2-[3-methyl-4-[2-[(2R,3S,4R,5S,6R)-3,4,5-trihydroxy-6-(hydroxymethyl)tetrahydropyran-2-yl]ethynyl]phenyl]ethynyl]tetrahydropyran-3,4,5-triol], the IC50 came out at 34 nM. With `O=C(CN1CCOCC1)N1CCC2(CC1)c1cc(C#C[C@H]3O[C@H](CO)[C@@H](O)[C@H](O)[C@@H]3O)ccc1-c1ccc(C#C[C@H]3O[C@H](CO)[C@@H](O)[C@H](O)[C@@H]3O)cc12` [Compound 221, 1-[2,7-bis[2-[(2R,3S,4R,5S,6R)-3,4,5-trihydroxy-6-(hydroxymethyl)tetrahydropyran-2-yl]ethynyl]spiro[fluorene-9,4piperidine]-1l]-2-morpholino-ethanone] the figure was 0.04 nM; with `Cc1cc(/C=C/c2ccc([C@H]3O[C@H](CO)[C@@H](O)[C@H](O)[C@@H]3O)c(C)c2)ccc1[C@H]1O[C@H](CO)[C@@H](O)[C@H](O)[C@@H]1O` [Compound 159, (2R,3S,4R,5S,6R)-2-(hydroxymethyl)-6-[2-methyl-4-[(E)-2-[3-methyl-4-[(2R,3S,4R,5S,6R)-3,4,5-trihydroxy-6-(hydroxymethyl)tetrahydropyran-2-yl]phenyl]vinyl]phenyl]tetrahydropyran-3,4,5-triol], 46 nM; with `OC[C@H]1O[C@H](C#Cc2coc(C#C[C@H]3O[C@H](CO)[C@@H](O)[C@H](O)[C@@H]3O)n2)[C@@H](O)[C@@H](O)[C@@H]1O` [Compound 129, (2R,3S,4R,5S,6R)-2-(hydroxymethyl)-6-[2-[2-[2-[(2R,3S,4R,5S,6R)-3,4,5-trihydroxy-6-(hydroxymethyl)tetrahydropyran-2-yl]ethynyl]oxazol-4-yl]ethynyl]tetrahydropyran-3,4,5-triol], 1240 nM. For `O=C(Cn1c2cc(C#C[C@H]3O[C@H](CO)[C@@H](O)[C@H](O)[C@@H]3O)ccc2c2ccc(C#C[C@H]3O[C@H](CO)[C@@H](O)[C@H](O)[C@@H]3O)cc21)N1CCOCC1` [Compound 180, 2-[2,7-bis[2-[(2R,3S,4R,5S,6R)-3,4,5-trihydroxy-6-(hydroxymethyl)tetrahydropyran-2-yl]ethynyl]carbazol-9-yl]-1-morpholino-ethanone] the value was 5.5 nM; for `Cc1cc(-c2ccc(-c3ccc([C@H]4O[C@H](CO)[C@@H](O)[C@H](O)[C@@H]4O)c(C)c3)nc2)ccc1[C@H]1O[C@H](CO)[C@@H](O)[C@H](O)[C@@H]1O` [Compound 157, (2R,3S,4R,5S,6R)-2-(hydroxymethyl)-6-[2-methyl-4-[6-[3-methyl-4-[(2R,3S,4R,5S,6R)-3,4,5-trihydroxy-6-(hydroxymethyl)tetrahydropyran-2-yl]phenyl]-3-pyridyl]phenyl]tetrahydropyran-3,4,5-triol], 10 nM; for `Cc1cc(-c2cccc(-c3ccc([C@H]4O[C@H](CO)[C@@H](O)[C@H](O)[C@@H]4O)c(C)c3)n2)ccc1[C@H]1O[C@H](CO)[C@@H](O)[C@H](O)[C@@H]1O` [Compound 154, (2R,3S,4R,5S,6R)-2-(hydroxymethyl)-6-[2-methyl-4-[6-[3-methyl-4-[(2R,3S,4R,5S,6R)-3,4,5-trihydroxy-6-(hydroxymethyl)tetrahydropyran-2-yl]phenyl]-2-pyridyl]phenyl]tetrahydropyran-3,4,5-triol], 44 nM.
